Several values for one entry are separate records, joined by “and”; a condition that tells them apart may be missing. Identical values can stand only once. Like-named read-outs stand apart in the source and are kept apart here.
Columns and labels:
[1] = system: SARS-CoV-2 B.1.617.2 (Delta); type: in vivo, K18-hACE2 mice; conditions: for PFU/g / PFU/mL: lung, plaque assay, N-0385 12h PI, individual mice
[2] = system: SARS-CoV-2 (USA-WA1/2020, lineage A); type: in vivo, K18-hACE2 mice
[3] = system: SARS-CoV-2 (USA-WA1/2020, lineage A); parameters: species or system K18-hACE2 mice; conditions: mouse, in vivo
[4] = system: SARS-CoV-2 (USA-WA1/2020, lineage A); test: K18-hACE2 mouse model of SARS-CoV-2, H&E histopathology of lung and brain; conditions: 8-day regimen
Procedure: For histological examination, mouse lungs and brains were collected directly after euthanasia and placed in 10% formalin for more than 72 h, after which tissues were embedded in paraffin. Tissue sections (4 μm) were analysed after staining with H&E and scored blinded by an anatomic pathologist. For lung, scores were applied based on the percentage of each tissue type (alveolus, vessels and so on) affected using the following criteria: (0) normal; (1) less than 10% affected; (2) 10–25% affected; (3) 26–50% affected; and (4) more than 50% affected[64]. Assessment of lung pathology in K18-hACE2 mice infected with the SARS-CoV-2 B.1.617.2 (Delta) VOC after single-dose treatment was performed on IHC sections counterstained with haematoxylin. For brains, histological scoring was assessed for perivascular inflammation using the most severely affected vessel and the following criteria: (0) no perivascular inflammation; (1) incomplete cuff one cell layer thick; (2) complete cuff one cell layer thick; (3) complete cuff two to three cells thick; and (4) complete cuff four or more cells thick. Necrotic cells in the neuroparenchyma were assessed per 0.237 mm^2 field using the most severely affected area and the following criteria: (0) no necrotic cells; (1) rare individual necrotic cells; (2) fewer than 10 necrotic cells; (3) 11 to 25 necrotic cells; (4) 26 to 50 necrotic cells; and (5) greater than 50 cells.

[5] = system: SARS-CoV-2 B.1.617.2 (Delta); test: microbe, parasite or virus in culture; type: cell-based; conditions: India; log [C] (nM) 0.20412
[6] = Figure S8 C, tissue plaque assay, Females, individual animals
[7] = Figure S8 C, tissue plaque assay, Males, individual animals
[8] = Males, Figure 5 Panel F, individual animals
[9] = females, Figure 5 Panel F, individual animals
[10] = individual mice, tissue at death or end-point

## CS(=O)(=O)NC(CCC(N)=O)C(=O)NC(Cc1ccccc1)C(=O)NC(CCCNC(=N)N)C(=O)c1nc2ccccc2s1 (stereo not drawn) [Compound N-0385, Ms-QFR-kbt]
[1]; Females
  PFU/g: 30000000 PFU/g and 0 PFU/g and 275000 PFU/g and 1000 PFU/g
  PFU/mL: 6000000 PFU/mL and 0 PFU/mL and 55000 PFU/mL and 200 PFU/mL
[1]; Males
  PFU/g: 275000 PFU/g and 32500 PFU/g and 1750 PFU/g and 0 PFU/g
  PFU/mL: 55000 PFU/mL and 6500 PFU/mL and 350 PFU/mL and 0 PFU/mL
[1]; mouse, in vivo
  reduction in lung viral titres at 3 dpi: more than 50%
[2]; [6]
  PFU/g: 0 PFU/g
  PFU/mL: 0 PFU/mL
[2]; [7]
  PFU/g: 0 PFU/g and 4852.94 PFU/g and 5882.35 PFU/g and 11764706 PFU/g
  PFU/mL: 0 PFU/mL and 970.588 PFU/mL and 1176.47 PFU/mL and 2352941 PFU/mL
[2]; Males, Figure 5 Panel F, at the Dilution Factor, individual animals
  Average Plaques: 53.25 and 0
[2]; [8]
  PFU/g: 2662500 PFU/g and 0 PFU/g
  PFU/mL: 532500 PFU/mL and 0 PFU/mL
[2]; endpoint plaque assay (Panel H), females, individual animals
  Average Plaques: 0
[2]; endpoint plaque assay (Panel H), females, individual animals, tissue resuspended at 5ul/mg
  PFU/g: 0 PFU/g
[2]; endpoint plaque assay (Panel H), males, individual animals
  Average Plaques: 0
[2]; endpoint plaque assay (Panel H), males, individual animals, tissue resuspended at 5ul/mg
  PFU/g: 0 PFU/g
[2]; females, Figure 5 Panel F, at the Dilution Factor, individual animals
  Average Plaques: 21 and 0 and 7.75
[2]; [9]
  PFU/g: 10500000 PFU/g and 0 PFU/g and 387500 PFU/g
  PFU/mL: 2100000 PFU/mL and 0 PFU/mL and 77500 PFU/mL
[2]; intranasal once daily day −1 to day 2, 14 dpi
  infectious virus in the lung at the study end-point: No infectious virus was detected
[2]; mouse, in vivo
  PFU/mL: 0 PFU/mL
  reduction of lung viral titres (plaque assay) at 3 dpi: 97%
[3]
  average weight loss at 6 dpi: 3%
  survival: 100%
  survival to the end-point (14 dpi): 70%
  weight gain at 6 dpi: 1%
  weight gain at time of death or the study end-point: 2%
  weight loss at the study end-point: 3%
[4]; N-0385: surviving mice, day 14
  Brain lesions (H&E): absent
[4]; individual mice, most severely affected vessel
  Perivascular infiltrates in CNS score: 0 and 1
[4]; [10]
  Alveolar cells score: 2 ((2) 10–25% affected) and 1 ((1) <10% affected) and 0
  Alveolar edema score: 0
  Alveolar fibrin score: 0
  Fibrosis score: 2 ((2) 10–25% affected) and 1 ((1) <10% affected) and 0
  Interstitial infiltrates in lung score: 2 ((2) 10–25% affected) and 1 ((1) <10% affected) and 0
  Lymphoid hyperplasia score: 1 ((1) <10% affected) and 0
  Perivascular infiltrate in lung score: 3 ((3) 26–50% affected) and 1 ((1) <10% affected) and 0
  Type II pneumocyte hyperplasia score: 2 ((2) 10–25% affected) and 1 ((1) <10% affected) and 0 and 3 ((3) 26–50% affected)
[5]
  infection, dose response Figure 3c (nucleocapsid): 60.9172 and 87.9076 and 85.6813 and 84.0612
